Results from US20230227566A1, “AMHRII-BINDING COMPOUNDS FOR PREVENTING OR TREATING LUNG CANCERS” (GAMAMABS PHARMA, priority 2017, published 2023).

Columns and labels:
[1] = tolerability (body weight, clinical observations) in study XTS-1526
Method: Adverse effect of the different treatments was determined as: • Relative Body Weight (RBW) will be calculated for each measurement by dividing the body weight by the body weight at the start of treatment. • Individual Body weight loss percent (% BWL)=100−(BWx/BW0×100), where BWx is the BW at any day during the treatment and BW0 is the BW on the 1st day of treatment.
Mice were observed every day for physical appearance, behavior and clinical changes.
Animals were sacrificed based on the following criteria: • Body weight loss (BWL)≥20% compared to the 1st day of treatment for 48 consecutive hours (3 measurements). • General alteration of behaviour or clinical signs. • Tumor volume ≥2000 mm^3.
Mean Body weight loss percent (% BWL)=100−(mean BWx/mean BW0x 100), where BWx is the mean BW at any day during the treatment and BW0 is the mean BW on the 1st day of treatment.

SC131 tumor model = assay: response of SC131 tumor model to standard-of-care agents; format: in vivo, mouse; settings: data obtained on swiss nude mice
Excerpt: Human tumor samples of various histological origins were obtained with informed consent from patients treated at cancer centers and established as transplantable xenografts in immunodeficient mice. The grafted samples are residual material from primary tumors or metastases obtained before or after treatment. These patient-derived xenograft (PDX) models have been established without prior in vitro culture and have been studied for histology, cytogenetics, genetic and other biological markers, and for their response to standard-of-care (SOC) therapies.
SC131 is low responder to docetaxel and to the combination cisplatin/gemcitabine, and no responder to the other agents tested (data obtained on swiss nude mice).

[2] = tested on: SC131 patient-derived non-small-cell lung xenograft; assay: antitumor efficacy study XTS-1526 in SC131 patient-derived xenograft; settings: for CR (complete regression), number of mice / TFS (Tumor Free Survivor), number of mice / TS (Tumor Stabilization), number of mice / PR (partial regression), number of mice: 9 mice per group; for antitumor efficacy compared with control group 1 (in words): Mann-Whitney test vs vehicle; for TGDI (Tumor Growth Delay Index): TGD treated/TGD control, same regimens; for TS (Tumor Stabilization), number of mice: constant tumor size during at least 3 consecutive measurements; for Best T/C%: day of best T/C D16 (G6: D11); for T/C % at day 16: mean tumor volume treated/control x100, day 16; for median TGD x 5: time to reach 5x D0 tumor volume, GM102 20 mg/kg IV 2qwk, docetaxel 20 mg/kg slow IV D0, cisplatin 5 + gemcitabine 100 mg/kg IP qwk; for PR (partial regression), number of mice: tumor size lower than initial during at least 3 consecutive measurements;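 for all read-outs here: subcutaneous tumor fragments grafted in mice, tumor volume from caliper diameters (length × width²/2) taken three times weekly during treatment, each treated group compared against vehicle controls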
Excerpt: Fifty-four (54) mice with a subcutaneously growing SC131 tumor (P22.1.3/0) between 62.5 and 220.5 mm^3 were allocated to treatment when the mean and median tumor volume reached 130.76 and 126.00 mm^3 respectively.
Tumors of the same passage were transplanted subcutaneously onto 3-24 mice (donor mice, passage (n−1)). When these tumors reached 700 to 2000 mm^3, donor mice were sacrificed by cervical dislocation, tumors were aseptically excised and dissected. After removing necrotic areas, tumors were cut into fragments measuring approximately 20 mm^3 and transferred in culture medium before grafting.
Eighty-nine (89) mice were anaesthetized with 100 mg/kg ketamine hydrochloride (batch 5D92—exp: 03-2017, Virbac) and 10 mg/kg xylazine (batch KP0AX9X, Bayer), and then skin was aseptized with a chlorhexidine solution, incised at the level of the interscapular region, and a 20 mm^3 tumor fragment was placed in the subcutaneous tissue. Skin was closed with clips.
Treatments were randomly attributed to boxes housing up to 5 mice and were initiated 18 days post implantation of the tumor (60% inclusion rate with staggered inclusion). The study was staggered-included with 5 mice included per group first, then 4 mice included per group 2 days later. The study was terminated following 31 days after the start of treatment.
For the additional groups 7 and 8, tumor size was higher and more heterogeneous. Animals were included 32 days post implantation.
Tumor volume was evaluated by measuring tumor diameters, with a caliper, three times a week during the treatment period. The formula TV (mm^3)=[length (mm)×width (mm)^2]/2 was used, where the length and the width are the longest and the shortest diameters of the tumor, respectively.
For the groups 1 to 6, each group initially included 9 mice. For the groups 7 and 8, each group initially included 8 mice.
Individual tumor growth delays (TGD) was calculated as the time in days required for individual tumors to reach 3- to 5-fold the initial tumor volume.
The tumor growth delay index (TGDI) was calculated as the median growth delay in the treated group divided by the median growth delay in the control group.
The percentage ratio between the mean tumor volume of a treated group (T) and the mean tumor volume of the control group (C) was calculated.
Statistical analysis was done for each measurement by Mann-Whitney non parametric comparison test. Each treated group was compared with control group.
Tumor Stabilization (TS) was defined as the number of mice presenting a constant tumor size during at least 3 consecutive measurements.
Partial tumor Regression (PR) was defined as the number of mice presenting a tumor size lower than initial tumor size during at least 3 consecutive measurements.

[3] = biological target: T1, human Anti-Mullerian Hormone type II Receptor (AMHRII) (human, UniProt Q16671 18-573); assay: immunohistochemistry (immunoperoxidase, biotinylated antibody) on AMHR2-transfected COV434 cells
T1 construct: also called AMHR2; MISRII
T1 sequence: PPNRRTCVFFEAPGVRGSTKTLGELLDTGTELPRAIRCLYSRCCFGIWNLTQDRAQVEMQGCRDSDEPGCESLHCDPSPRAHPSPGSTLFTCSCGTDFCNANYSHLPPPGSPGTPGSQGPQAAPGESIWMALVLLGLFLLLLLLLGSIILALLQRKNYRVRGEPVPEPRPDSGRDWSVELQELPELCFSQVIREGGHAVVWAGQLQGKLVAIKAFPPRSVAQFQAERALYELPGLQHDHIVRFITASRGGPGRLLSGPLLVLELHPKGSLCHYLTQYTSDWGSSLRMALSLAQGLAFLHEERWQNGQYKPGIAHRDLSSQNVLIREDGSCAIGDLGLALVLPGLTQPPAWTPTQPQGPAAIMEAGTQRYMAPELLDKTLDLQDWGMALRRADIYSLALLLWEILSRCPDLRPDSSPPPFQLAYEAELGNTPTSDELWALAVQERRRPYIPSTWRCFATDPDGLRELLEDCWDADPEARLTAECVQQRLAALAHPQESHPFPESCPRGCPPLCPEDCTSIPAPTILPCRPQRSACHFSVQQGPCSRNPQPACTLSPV

AMHRII = biological target: T2, AMHRII (Homo sapiens, UniProt Q16671); assay: binding of 3C23K antibody to AMHRII (Kd)
T2 sequence (Q16671 18-573): T1 sequence

[4] = tested on: LXFE2226 squamous non-small cell lung cancer model tumor xenografts; assay: antitumor efficacy in LXFE2226 tumor xenografts; format: in vivo, mouse
Excerpt: Tumor fragments were obtained from xenografts in serial passage in nude mice. After removal from donor mice, tumors were cut into fragments (3-4 mm edge length) and placed in PBS containing 10% penicillin/streptomycin. Recipient animals were anesthetized by inhalation of isoflurane and received unilateral or bilateral tumor implants subcutaneously in the flank.
LXFE2226 squamous non-small cell lung cancer model tumor xenografts were implanted subcutaneously with one tumor per mouse (NMRI-Foxn1^nu from Charles River). The experiment consisted of two groups of mice from which three of them were euthanized on day 15 for detecting membranous AMHRII expression by flow cytometry. The first group was a vehicle control group and the second group received the investigational antibody GM102, which was administered intraperitoneally (i.p.) twice weekly at a dose level of 20 mg/kg.
Antitumor efficacy was evaluated as minimum T/C value by comparison of group median relative tumor volumes (RTVs) on the days where the optimal efficacy was reached. The experiment was terminated on day 43 after a two-week dosing-free observation period.

[5] = tested on: AMHR2-transfected human tumor cell lines; settings: cited from earlier work

Molecule: CC(=O)O[C@@]12CO[C@@H]1C[C@H](O)[C@@]1(C)C(=O)[C@H](O)C3=C(C)[C@@H](OC(=O)[C@H](O)[C@@H](NC(=O)OC(C)(C)C)c4ccccc4)C[C@@](O)([C@@H](OC(=O)c4ccccc4)[C@H]21)C3(C)C [Docetaxel]
- mice that had to be sacrificed before the end of the study ([1]; despite DietGel, 9 mice per group (groups 7, 8: 8)): 4
- maximum individual body weight loss ([1]; mouse, in vivo): 23.8%
- maximum mean body weight loss ([1]; mouse, in vivo): 17.0%
- response of SC131 to the agent (in words) (SC131 tumor model): low responder
- CR (complete regression), number of mice [2]: 0
- TFS (Tumor Free Survivor), number of mice [2]: 0
- antitumor efficacy compared with control group 1 (in words) [2]: strong and statistically significant
- TGDI (Tumor Growth Delay Index) [2]: >2.71
- TGDI (Tumor Growth Delay Index) ([2]; listed as docetaxel): > 2.71
- TS (Tumor Stabilization), number of mice [2]: 7
- TS (Tumor Stabilization), number of mice ([2]; listed as docetaxel): 7/9
- Mann-Whitney analysis on tumor volume vs vehicle, day 4 ([2]; day 4): ** (P < 0.01)
- Mann-Whitney analysis on tumor volume vs vehicle, day 7 ([2]; day 7): *** (P < 0.001)
- Mann-Whitney analysis on tumor volume vs vehicle, day 9 ([2]; day 9): *** (P < 0.001)
- Mann-Whitney analysis on tumor volume vs vehicle, day 11 ([2]; day 11): *** (P < 0.001)
- Mann-Whitney analysis on tumor volume vs vehicle, day 14 ([2]; day 14): *** (P < 0.001)
- Mann-Whitney analysis on tumor volume vs vehicle, day 16 ([2]; day 16): *** (P < 0.001)
- Best T/C% [2]: 11.00%
- Best T/C% ([2]; listed as docetaxel): 11.00%
- T/C % at day 16 [2]: 11.00%
- median TGD x 5 [2]: >28 days
- PR (partial regression), number of mice [2]: 2
- PR (partial regression), number of mice ([2]; listed as docetaxel): 2/9

B1: 3C23K anti-AMHRII monoclonal antibody (antibody, human IgG1, kappa, V domains shown)
VH: QVRLVQSGAEVKKPGASVKVSCKASGYTFTSYHIHWVRQAPGQRLEWMGWIYPGDDSTKYSQKFQGRVTITRDTSASTAYMELSSLRSEDTAVYYCTRGDRFAYWGQGTLVTVSS
VL: DIQMTQSPSTLSASVGDRVTITCRASSSVRYIAWYQQKPGKAPKLLTYPTSSLKSGVPSRFSGSGSGTEFTLTISSLQPDDFATYYCLQWSSYPWTFGGGTKVEIKR
notes: Humanized mAb; GM102 is described as a low fucose form; also called GM102; 3C23K-AF
- binding result [3]: binds

B2: GM102: humanized anti-AMHRII (AMHR2) monoclonal antibody, low fucose; VH SEQ ID NO 19, VL SEQ ID NO 36 (antibody, V domains shown)
VH: B1 VH
VL: DIQMTQSPSTLSASVGDRVTITCRASSSVRYIAWYQQKPGKAPKLLTYPTSSLKSGVPSRFSGSGSGTEFTLTISSLQPDDFATYYCLQWSSYPWTFGGGTKVEIK
modifications: low fucose; Synthetic 3C23K/3C23; Synthetic 3C23K
- Kd (AMHRII): 0.0553 nM
- mice found dead ([1]; 9 mice per group (groups 7, 8: 8)): Mouse #27 was found dead on day 27
- maximum mean body weight loss ([1]; SC131-bearing nude mice (cachectic tumor), day of maximum differs per group): 9.8%
- maximum individual body weight loss ([1]; SC131-bearing nude mice, day of maximum differs per group): 16.8%
- tolerability (in words) ([1]; mouse, in vivo, iv, 20 mg/kg): well tolerated
- tumor volume at Day 28 vs vehicle (in words) ([4]; Day 28, p<0.001): drastically reduction of the tumor volume
- anti-tumor activity (in words) ([4]; GM102 20 mg/kg i.p. twice weekly, NMRI-Foxn1nu mice): strong anti-tumor activity
- efficacy in combination with carboplatin and paclitaxel (in words) ([5]; Jacquet A., Cancer Res, 2012): synergistic
- antitumor efficacy (in words) ([5]; mouse, in vivo): display antitumor efficacy
- CR (complete regression), number of mice [2]: 0
- TFS (Tumor Free Survivor), number of mice [2]: 0
- tumor growth inhibition ([2]; GM102 alone, did not reach statistical significance): 25%
- antitumor efficacy compared with control group 1 (in words) [2]: did not demonstrate any antitumor efficacy
- TGDI (Tumor Growth Delay Index) [2]: 1.33
- TS (Tumor Stabilization), number of mice [2]: 0
- Best T/C% [2]: 74.68%
- T/C % at day 16 [2]: 74.68%
- median TGD x 5 [2]: 13.70 days
- PR (partial regression), number of mice [2]: 0
